Assay results: USRE38423E1, “Process for in vitro analysis of toxic and allergenic substances” (Biovator Technologies AB, priority 1995, dated 2004)

Tests used:
human whole blood [1] = assay: Proliferation assay, 3H-thymidine incorporation in diluted whole blood cultures; assay type: cell-based; details: for Prolif. Index (3H-Thymidine Proliferation): blood from 5 normal humans, highest value at any time or concentration, related to medium control given the value 100; for proliferative response (in words): summary of results, 3H-thymidine incorporation
Description: (§1) Five healthy blood donors from both sexes ranging in age between 25 and 55 years are used. Blood is collected by venous puncture into endotoxin free heparin tubes (Coatech, Ljungby, Sweden) that contains 120 IU heparin and are filled with 4 ml of blood. None of the blood donors are allowed to have a history of allergy or atopic excema or any indication of ongoing disease of any kind.
(§2) 100 ul of blood is added to the wells of Nunclon microtiter plates.
(§3) For substances to be tested for effects in the system different concentration are added to the blood. The highest concentration of the substance being non toxic to the cells indicated by inspection in microscopic in presence of vital stain e.g. trypan blue is used as start concentration.
(§4) The microtiter plates are incubated at 37° C. at 90% humidity and with 5% CO2. An appropriate number of identical plates are prepared and are taken out of the incubator for testing at intervals of, 1 day, 2 days and 6 days.
One set of plates is used to estimate the proliferative activity of the donor cells spontaneously (=medium or substance dissolved controls); in response to PHA, and in response to samples of test substances at various concentrations. The highest concentration of sub-stance non toxic to the cells indicated by inspection in microscope in presence of vital stain (e.g. trypan blue) is used as start concentration. Ser. dilutions of the sub-stance is then performed as stated above.
The plates were incubated for additional 4 hours at 37° C. The cells were then collected using a Skatron cell harvester (Skatron, Lier, Norway) and Titertek paper filters. The result of his procedure is that the DNA of the cells is stuck in the filter paper, whereas the ^3H-thymidin not incorporated in the DNA passes through the filter and goes with the waste washing water. The radioactivity in the filter papers is thus proportional to the DNA synthesis that occured during the 4 hours preceding the harvesting procedure. The radiactivity of the filter papers is determined in a Packard liquid scintillation counter, and thymidine incorporation was expressed as counts per minute (cpm).
(§5) The highest value as compared to medium control obtained at any time or concentration for each substance is used as indicator value in the table and related to medium control put to value 100 index.

human whole blood [2] = assay type: cell-based; set-up: key to IL-1 / IFNγ / Neopterin / TNF / IL-6 / IL-8 / IL-2 / STL-2R / SCD8 / IL-10 / IL-4: index relative to medium control = 100; details: for IFNγ / IL-1 / IL-2 / IL-4 / IL-6 / IL-8 / IL-10 / Neopterin / SCD8 / STL-2R / TNF: blood from 5 normal humans, highest value at any time or concentration, related to medium control given the value 100
Description: as §1, §2, §3, §4
Another set of plates is prepared with the same design as in “Culture protocol” above. Cytokines released from the cultured cells are measured in the supernatants obtained after centrifugation of the plates at 650 g for 10 minutes. The supernatants were either tested immediately or stored at −20° C. until tested.
The instructions of the manufacturers were followed. All these tests are enzyme immunoassays (EIA:s). The principle is that microtiter plate wells are labeled with a cytokine specific capture antibody. If cytokine is present in the samples added to the wells it will be captured to the bottom of the well. […] The reaction is thereafter measured as colour developed after addition of a substrate for the enzyme. The values for the test wells is compared with a standard curve obtained by adding a series of known amounts of cytokine. The values obtained for control wells with no substance added are used as background values for cytokine levels and proliferation as measured by ^3H-thymidin incorporation. Positive indications are recorded when values above 2 SD of the variation of the controls are obtained.
as §5

[3] = summary of results, secreted into supernatants

Compound	Prolif. Index (3H-Thymidine Proliferation) (human whole blood [1])	proliferative response (in words) (human whole blood [1])	IFNγ (human whole blood [2])	IL-1 (human whole blood [2])	IL-2 (human whole blood [2])	IL-4 (human whole blood [2])	IL-6 (human whole blood [2])	IL-8 (human whole blood [2])	IL-10 (human whole blood [2])	Neopterin (human whole blood [2])	SCD8 (human whole blood [2])	STL-2R (human whole blood [2])	TNF (human whole blood [2])	immune lymphocyte class / specific immune response cytokines induced (in words) (human whole blood [2]; [3])	unspecific inflammatory / tissue toxic group cytokines induced (in words) (human whole blood [2]; [3])	Neopterin induction (in words) (human whole blood [2]; [3])	predicted adverse reaction from cytokine pattern (in words) (human whole blood [2]; interpretation of the cytokine profile)
phytohemagglutinin [Plus]	2600	strong proliferative response	800	690	750	820	1620	780	1250	440	940	1820	420	neopterin, IFN-gamma IL-2 and IL-4 and IL-10	IL-1, IL-6, TNF and IL-8	–	–
[Cl][Ni][Cl] [IV, Nickel chloride]	1340	low proliferative response	1220	1165	445	80	660	380	800	90	110	130	225	IFN-gamma, IL-2 and IL-10	IL-1, IL-6, TNF and IL-8	no Neopterin	–
Triton X-100	200	induced proliferation	120	630	85	85	460	200	95	110	95	115	400	–	IL-1, IL-6 and TNF	–	positive tissue irritant
